The record followed here is patent US20260138976A1 (Hoffmann-La Roche Inc., priority 2022, published 2026).

Assay [1] has as its target T1, DGKα (hDGKalpha(1-735)-N-His) (Homo sapiens, UniProt P23743).
T1 construct: hDGKalpha(1-735)-N-His; His (N); made in house; host or cells: Sf21 insect cells (baculovirus)
Put plainly: In vitro DGK inhibition assay, DGKalpha ADP Glo (in house). The assay is classed as biochemical. As to conditions: 4 nM DGKα, 25 μM ATP, 125 uM DLG in liposomes, 1 hour reaction. The procedure, abridged:
(§1)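 ADP-Glo luminescence measured ADP formed over 1 h by Sf21-expressed full-length human enzymes: DGKα at 4 nM with 25 µM ATP, DGKζ at 2 nM with 50 µM ATP, both on 125 µM DLG in PS/PC liposomes. Dose–response used 11 threefold dilutions at 2% final DMSO.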
A general note: ADP-Glo turns the ADP formed in a reaction into a luminescent signal.

Assay [2] deals with T2, DGKζ (hDGKzeta(1-928)-N-His) (Homo sapiens, UniProt Q13574).
T2 construct: hDGKzeta(1-928)-N-His; His (N); made in house; host or cells: Sf21 insect cells (baculovirus)
T2 sequence (Q13574 whole entry): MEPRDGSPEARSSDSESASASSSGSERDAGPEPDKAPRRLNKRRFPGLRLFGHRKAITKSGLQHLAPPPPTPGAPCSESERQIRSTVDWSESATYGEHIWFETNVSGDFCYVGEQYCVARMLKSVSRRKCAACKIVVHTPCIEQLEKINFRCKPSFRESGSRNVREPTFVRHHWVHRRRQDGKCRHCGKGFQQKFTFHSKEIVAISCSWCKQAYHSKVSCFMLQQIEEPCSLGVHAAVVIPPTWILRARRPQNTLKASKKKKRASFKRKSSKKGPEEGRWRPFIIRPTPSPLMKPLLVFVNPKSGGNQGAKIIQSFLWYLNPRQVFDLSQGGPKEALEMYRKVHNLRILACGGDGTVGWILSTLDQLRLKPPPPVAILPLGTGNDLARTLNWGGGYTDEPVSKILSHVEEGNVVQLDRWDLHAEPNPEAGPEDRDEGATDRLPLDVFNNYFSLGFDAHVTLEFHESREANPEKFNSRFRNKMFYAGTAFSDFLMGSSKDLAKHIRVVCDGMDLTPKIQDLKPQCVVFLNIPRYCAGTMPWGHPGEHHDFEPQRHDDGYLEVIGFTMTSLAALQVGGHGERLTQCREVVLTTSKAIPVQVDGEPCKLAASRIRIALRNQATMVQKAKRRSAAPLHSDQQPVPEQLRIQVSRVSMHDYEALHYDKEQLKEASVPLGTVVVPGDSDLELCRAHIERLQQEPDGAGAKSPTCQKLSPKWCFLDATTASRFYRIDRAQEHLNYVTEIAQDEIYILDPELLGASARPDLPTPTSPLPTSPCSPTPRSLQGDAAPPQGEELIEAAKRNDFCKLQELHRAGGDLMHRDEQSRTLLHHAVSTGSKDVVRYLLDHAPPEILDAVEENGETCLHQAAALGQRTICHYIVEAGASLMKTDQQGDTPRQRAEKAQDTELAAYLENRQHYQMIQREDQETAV
Put plainly: In vitro DGK inhibition assay, DGKzeta ADP Glo (in house). The assay is classed as biochemical. As to conditions: 2 nM DGKζ, 50 μM ATP, 125 uM DLG in liposomes, 1 hour reaction. The method in brief: as §1

T1 sequence (P23743 whole entry): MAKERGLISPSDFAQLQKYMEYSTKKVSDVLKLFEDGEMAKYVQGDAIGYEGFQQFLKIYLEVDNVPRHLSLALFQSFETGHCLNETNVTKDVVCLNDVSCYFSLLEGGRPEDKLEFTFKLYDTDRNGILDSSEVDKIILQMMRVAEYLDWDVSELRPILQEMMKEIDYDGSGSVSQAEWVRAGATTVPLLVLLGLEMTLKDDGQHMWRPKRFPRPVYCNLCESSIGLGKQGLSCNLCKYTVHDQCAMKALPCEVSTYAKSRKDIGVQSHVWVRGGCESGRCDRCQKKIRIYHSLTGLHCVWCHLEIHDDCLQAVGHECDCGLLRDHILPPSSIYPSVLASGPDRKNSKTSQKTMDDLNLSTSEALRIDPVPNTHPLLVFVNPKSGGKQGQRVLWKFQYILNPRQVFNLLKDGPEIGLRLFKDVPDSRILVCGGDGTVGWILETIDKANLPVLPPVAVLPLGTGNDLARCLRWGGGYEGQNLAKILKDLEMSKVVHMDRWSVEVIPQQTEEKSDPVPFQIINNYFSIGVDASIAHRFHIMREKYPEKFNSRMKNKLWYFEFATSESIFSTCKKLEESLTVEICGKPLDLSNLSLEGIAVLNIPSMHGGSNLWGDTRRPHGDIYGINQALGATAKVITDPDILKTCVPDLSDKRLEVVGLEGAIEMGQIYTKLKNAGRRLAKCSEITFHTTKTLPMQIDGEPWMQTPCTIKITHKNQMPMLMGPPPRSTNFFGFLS

Consider `CC(C)(C#N)c1nnc(-c2ccc3c(c2)N(Cc2ccc(-c4ccc(C(F)(F)F)nc4)cc2)C(=O)[C@@H](N)CS3(=O)=O)o1` [Example 113, 2-[5-[(3R)-3-amino-1,1,4-trioxo-5-[[4-[6-(trifluoromethyl)-3-pyridyl]phenyl]methyl]-2,3-dihydro-1λ^6,5-benzothiazepin-7-yl]-1,3,4-oxadiazol-2-yl]-2-methyl-propanenitrile], for which the 50% inhibitory concentration (IC50) (as a rule, the point on the concentration scale where inhibition reaches its midpoint) is over 62500 nM in assay [1] and 1130 nM in assay [2].
The matching figures for `COC(=O)N1CC(c2nnc(-c3ccc4c(c3)N(Cc3ccc(-c5noc(C(C)(C)C)n5)cc3)C(=O)[C@@H](N)CS4(=O)=O)o2)CC(F)(F)C1` (stereo partly drawn) [Example 56, methyl 3,3-difluoro-5-[5-[(3R)-3-amino-5-[[4-(5-tert-butyl-1,2,4-oxadiazol-3-yl)phenyl]methyl]-1,1,4-trioxo-2,3-dihydro-1λ^6,5-benzothiazepin-7-yl]-1,3,4-oxadiazol-2-yl]piperidine-1-carboxylate]: 1990 nM and 228 nM.
The corresponding values for `N[C@H]1CS(=O)(=O)c2cc(F)c(-c3noc(C4(N)COC4)n3)cc2N(Cc2ccc(-c3ccc(C(F)(F)F)cn3)cc2)C1=O` [Example 10, (3R)-3-amino-7-[5-(3-aminooxetan-3-yl)-1,2,4-oxadiazol-3-yl]-8-fluoro-1,1-dioxo-5-[[4-[5-(trifluoromethyl)-2-pyridyl]phenyl]methyl]-2,3-dihydro-1λ^6,5-benzothiazepin-4-one] are 5160 nM and 282 nM.
For `CC(C)(C#N)c1nnc(-c2ccc3c(c2)N(Cc2ccc(-c4ncc(OC(F)(F)F)cn4)cc2)C(=O)[C@@H](N)CS3(=O)=O)o1` [Example 117], the half-maximal inhibitory concentration (IC50) in assay [1] is 1140 nM; in assay [2], 1010 nM.
The corresponding values for `CC(O)(c1nnc(-c2ccc3c(c2)N(Cc2ccc(-c4noc(C5CC5)n4)cc2)C(=O)[C@@H](N)CS3(=O)=O)o1)C(F)(F)F` (some centres unmarked) [Example 170] are over 62500 nM and 2000 nM.
The matching figures for `COC(=O)N1CC(c2nnc(-c3ccc4c(c3)N(Cc3ccc(-c5ccc(C(F)(F)F)cc5)nc3)C(=O)[C@@H](N)CS4(=O)=O)o2)CC(F)(F)C1` (stereo partly drawn) [Example 57, methyl 3,3-difluoro-5-[5-[(3R)-3-amino-1,1,4-trioxo-5-[[6-[4-(trifluoromethyl)phenyl]-3-pyridyl]methyl]-2,3-dihydro-1λ^6,5-benzothiazepin-7-yl]-1,3,4-oxadiazol-2-yl]piperidine-1-carboxylate]: 3340 nM and 2340 nM.
Take `CC(C)(C#N)c1nnc(-c2ccc3c(c2)N(Cc2ccc(-c4cnc(OC(F)(F)F)cn4)cc2)C(=O)[C@@H](N)CS3(=O)=O)o1` [Example 112]: the IC50 in assay [1] is 1750 nM; in assay [2], 473 nM.
